Patent US12410189B2, “Polymorphs and solid forms of (S)-2-2((2-((S)-4-(difluoromethyl)-2-oxooxazolidin-3-yl)-5,6-dihydrobenzo[f]imidazo[1,2-d][1,4]oxazepin-9-yl)amino)propanamide, and methods of production” (Genentech, Inc., priority 2017, dated 2025)
In brackets after ≈: the same amount, converted by molar mass. Entries after “also recorded” stand apart in the source; their conditions may differ.

Assays:
[1] = Water sorption analysis (dynamic vapor sorption); format: physicochemical
Method: About 5-6 mg of powder sample was placed in the sample pan of an automated water sorption analyzer (Q5000SA, TA instruments, New Castle, DE) at 25° C. and a nitrogen flow rate of 200 mL/min. The sample was initially “dried” at 0% RH for a total of 600 minutes (at 60 followed by 25° C.), following which it was subjected to progressive increase in RH from 0-90%, in increments of 10% with a dwell time of 240 minutes at every RH with a dm/dt window of 0.001% for 30 minutes. This was followed by a progressive decrease in RH in decrements of 10% back to 0% RH, using the same protocol. For hydrate samples, the process was reversed where the starting RH was maintained at 90%, followed by a progressive step-wise lowering to 0%, followed by similar step wise increase back to 90%. This was done to ensure that the water of hydration is retained at the start of the experiment.

[2] = Particle size distribution analysis (PSD); format: physicochemical
Method: Particle size analysis was performed using a Malvern Mastersizer 2000 instrument equipped with a Hydros 2000SM wet dispersion attachment (Malvern Instruments Ltd., Malvern, UK). ˜30 mg of API was weighed into a vial and 1 mL of 0.1% Span 85 in heptane was added. The vial was sonicated for 5 seconds, about 0.3 mL was added to the sampler at a stir speed of 1500 rpm, and a PSD was performed at an obscuration of 10-20%. The sample was then sonicated for 10 more seconds (a total of 15 seconds), about 0.3 mL was added to the sampler, a PLM image was acquired, and PSD was performed. The same sample was then sonicated for another 15 seconds (a total of 30 seconds), about 0.3 mL was added, a PLM photo was taken and PSD was performed. From the sonication study, an appropriate sonication period was chosen. The PLM images and PSDs were used to determine how much sonication the sample needed to disperse clumps but prevent or minimize crystal fracturing. Three more samples, of ˜10 mg, were weighed into vials and 1 mL of 0.1% Span 85 in heptane was added. The samples were sonicated for the sonication period determined in the sonication study. The final PSD analysis was performed in triplicate using the predetermined sonication period. The instrument was rinsed twice with isopropyl alcohol (IPA) and once with heptane before being filled with 0.1% Span 85 in heptane for each sample. After the last sample had run, the instrument was rinsed with IPA once.

[3] = Stability study of milled Form A in open vials; format: physicochemical; details: up to 8 weeks
Method: (§1) Milling of Form A may optimize certain PK properties. A scaled up Form A lot was milled and also placed on stability studies (40° C./75% RH, 25° C./60% RH, open vials). Three more lots were also milled which behaved similarly upon milling. A milled representative lot was characterized and the physical form was determined. This lot was slurried in 100% ethanol to obtain Form A and milled using a jet mill at for 3.5 hrs with 60 psi pressure. […] The particle size analysis (PSD) was determined to be D10=0.7 μm, D50=2.7 μm, D90=6.7 μm. Post milling, a portion of the API (Active Pharmaceutical Ingredient, i.e. GDC-0077) batch was placed on stability at 40° C./75% RH and 25° C./60% RH in open vials. Solid-state data was collected at 4 and 8 weeks to evaluate effect of temperature and humidity on the physical form. The milled and stability samples were characterized by XRPD, PLM, DSC, TGA, Water sorption analysis and surface area analysis. DSC runs were performed in the modulated mode using non-hermetically crimped pans, a heating rate of 1° C./min from 0-175° C., modulation amplitude of ±1° C. and a period of 60 seconds.

[4] = Water solubility of Form A; format: physicochemical; details: pH 7.06, water, room temperature, pH of 7.06
Excerpt: The trihydrate form was obtained by slurrying Form A in DI water over 4 days (RT), centrifuging the slurry to remove supernatant and then drying the solid at RT for a few hours.

[5] = Slurry of Form A in DI water, anhydrate to hydrate conversion by XRPD; format: physicochemical
Method: Conversion of anhydrous Form A to Form B was investigated. […] To check for hydrate formation, Form A was slurried in DI water for 4 days (RT). Form conversion (anhydrate to hydrate) was initiated at 12 hours and was complete within 4 days, as detected by XRPD with reference to Form B. Anhydrate (Form A) to hydrate (Form B) conversion was measured upon slurrying in DI water for 4 days. […] Form conversion is complete by 96 hrs.

[6] = Slurry bridging of Forms A and D (1:1) in n-propanol; format: physicochemical
Method: Based on Burger and Ramberger's “Heat of Fusion Rule” of polymorphism, two polymorphs are considered to be monotropic if the one with the higher melting point has a greater heat of fusion as well (Burger and Ramberger, Mikrochimica Acta (1979), 256). […] To confirm this further, a slurry bridging experiment was conducted at RT in n-propanol, which had previously yielded Form D from the crude API.
(§2) Deionized (DI) Water-ethanol (absolute alcohol) mixtures of different compositions ranging from 0-100% water were prepared and their water activities were measured using a water activity meter. Slurry experiments were set up at RT wherein 1:1 mixtures of trihydrate and anhydrous forms of GDC-0077 (40 mg total) were added to these solvent mixtures (1.5 mL liquid) and agitated at RT over 4 days. After 4 days, the samples were aliquoted and centrifuged. The solids were analyzed by XRPD and the supernatant was analyzed for water activity. 1:1 mixture of Forms A and D was slurried in in-propanol overnight at RT. The slurry was centrifuged and the solid form was analyzed by XRPD.

[7] = Jet milling of Form A, physical form after size reduction; format: physicochemical; details: jet mill
Method: as §1

[8] = Isothermal TGA dehydration of Form B; format: physicochemical; details: TGA held at 60° C.
Method: The desolvation behavior of Form B as well its ability to rehydrate was further characterized. […] As evident from the data, the hydrate dehydrates readily, losing almost all of its lattice water (12%) at 60° C. and rehydrates after 4 hours of equilibration which indicates easy passage of water in and out of the lattice. The water sorption desorption behavior of trihydrate Form B GDC-0077 at 25° C. is depicted in FIG. 10A. The dynamic vapor sorption experiment provides information about the dehydration behavior of Form B. Dehydration of Form B commences rapidly below 40% RH (desorption curve) and is complete by the time the sample is exposed to 0% RH. Although there is a hysteresis showing equilibrium lag, the anhydrous product rehydrates beyond 40% RH, equally readily. […] The trihydrate dehydrates in 2-3 steps whereas the anhydrate to hydrate formation occurs majorly in one step at >40% RH (25° C.).
Isothermal experiments: In a thermogravimetric analyzer (Q500 TGA, TA instruments), 3-4 mg of GDC-0077 samples were heated in an open aluminum pan from RT to 60° C. at a heating rate of 10° C./min held isothermally at 60° C. overnight. Samples were then either analyzed by XRPD or left to equilibrate at RT for 4 hours in the sample pan and then rerun isothermally at 60° C. using the same experimental parameters as mentioned above.

[9] = Slurry bridging of hydrate-anhydrate mixtures in ethanol-water mixtures, water activity; format: physicochemical; details: RT
Method: as §2, with “XRPD. An Aqualab 4TEV (Decagon Devices, WA) was used as the water activity meter in the capacitance sensor mode to acquire data at 25±0.2° C. for solvent mixtures and slurry supernatants. Instrument was calibrated using vendor provided standards (saturated salt solutions) over the aw range of 0.25-1. All aw values are obtained after stabilization of three consecutive reads.” for “XRPD.”

[10] = target: PI3K (Homo sapiens, UniProt P42336); details: WO 2017/001645, US 2017/0015678, AACR 2017; cited from earlier work
PI3K, sequence (P42336 whole entry): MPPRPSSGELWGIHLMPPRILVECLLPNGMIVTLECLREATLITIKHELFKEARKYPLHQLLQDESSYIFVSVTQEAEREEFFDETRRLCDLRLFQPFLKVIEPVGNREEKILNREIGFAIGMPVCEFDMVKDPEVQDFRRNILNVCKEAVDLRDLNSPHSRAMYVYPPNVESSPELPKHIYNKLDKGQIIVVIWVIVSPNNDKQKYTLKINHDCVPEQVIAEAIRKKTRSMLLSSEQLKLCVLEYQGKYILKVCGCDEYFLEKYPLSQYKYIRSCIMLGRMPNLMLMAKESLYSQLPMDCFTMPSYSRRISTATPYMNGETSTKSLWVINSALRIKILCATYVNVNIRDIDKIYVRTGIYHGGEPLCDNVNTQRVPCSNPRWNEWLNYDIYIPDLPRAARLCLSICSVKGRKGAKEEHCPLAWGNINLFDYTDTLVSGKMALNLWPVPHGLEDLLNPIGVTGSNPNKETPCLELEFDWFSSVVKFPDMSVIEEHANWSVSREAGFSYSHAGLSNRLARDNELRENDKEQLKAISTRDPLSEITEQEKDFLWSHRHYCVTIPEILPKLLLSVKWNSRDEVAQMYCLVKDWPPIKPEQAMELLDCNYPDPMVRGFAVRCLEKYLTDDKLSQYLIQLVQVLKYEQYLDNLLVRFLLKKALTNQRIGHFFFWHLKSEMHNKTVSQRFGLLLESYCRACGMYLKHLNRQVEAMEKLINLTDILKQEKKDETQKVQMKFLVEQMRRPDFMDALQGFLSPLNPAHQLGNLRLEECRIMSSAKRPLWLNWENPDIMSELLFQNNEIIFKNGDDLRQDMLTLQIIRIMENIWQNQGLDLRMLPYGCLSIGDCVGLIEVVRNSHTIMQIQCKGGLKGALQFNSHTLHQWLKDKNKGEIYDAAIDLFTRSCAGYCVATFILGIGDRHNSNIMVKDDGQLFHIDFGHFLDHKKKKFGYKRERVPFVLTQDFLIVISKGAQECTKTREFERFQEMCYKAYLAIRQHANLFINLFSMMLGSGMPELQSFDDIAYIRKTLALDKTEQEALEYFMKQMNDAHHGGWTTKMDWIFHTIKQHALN
PI3K, sequence (P27986 whole entry partner): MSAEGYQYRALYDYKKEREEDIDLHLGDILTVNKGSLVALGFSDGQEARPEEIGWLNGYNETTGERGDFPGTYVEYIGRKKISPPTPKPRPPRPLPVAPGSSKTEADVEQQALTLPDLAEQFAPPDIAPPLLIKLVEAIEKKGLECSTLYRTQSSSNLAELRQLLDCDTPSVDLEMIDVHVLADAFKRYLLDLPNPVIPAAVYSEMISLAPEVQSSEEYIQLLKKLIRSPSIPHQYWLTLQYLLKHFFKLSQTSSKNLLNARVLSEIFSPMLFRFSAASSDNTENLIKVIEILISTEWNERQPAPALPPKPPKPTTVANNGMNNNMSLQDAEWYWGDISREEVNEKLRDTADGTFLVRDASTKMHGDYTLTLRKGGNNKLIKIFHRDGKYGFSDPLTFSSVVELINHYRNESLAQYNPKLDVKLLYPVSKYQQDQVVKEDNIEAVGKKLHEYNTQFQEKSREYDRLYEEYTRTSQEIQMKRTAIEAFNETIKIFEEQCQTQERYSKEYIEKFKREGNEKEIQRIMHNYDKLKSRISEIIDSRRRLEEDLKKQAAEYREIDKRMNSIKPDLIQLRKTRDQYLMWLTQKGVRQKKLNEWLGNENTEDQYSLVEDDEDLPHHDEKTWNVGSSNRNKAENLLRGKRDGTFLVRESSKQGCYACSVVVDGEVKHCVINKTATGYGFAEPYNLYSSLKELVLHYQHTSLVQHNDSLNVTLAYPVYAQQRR

[11] = Surface area analysis (BET); format: physicochemical; details: for BET Surface Area: Krypton gas adsorption
Method: Surface area measurement was conducted using a Micromeritics ASAP 2460 with a Micromeritics Smart VacPrep attachment (Micromeritics Instrument Corp., GA). A sample of 500 mg-1 g was weighed into an empty ASAP 2460 tube and placed on the Smart VacPrep, degassed for 24 hours under ambient conditions and then exposed to Krypton gas adsorption at […] and 100 mm Hg hold pressure. An 11-point measurement was made in the relative pressure range of 0.050-0.300 and the data was analyzed using MicroActive software provided by the vendor.

[12] = listed as printed without sonication time
[13] = after jet milling 3.5 hrs, 60 psi

C[C@H](Nc1ccc2c(c1)OCCn1cc(N3C(=O)OC[C@H]3C(F)F)nc1-2)C(N)=O [Form A, (S)-2-((2-((S)-4-(difluoromethyl)-2-oxooxazolidin-3-yl)-5,6-dihydrobenzo[f]imidazo[1,2-d][1,4]oxazepin-9-yl)amino) propanamide]
moisture uptake (water sorption) ([1]; 25° C., up to 90% RH): 0.25 % w/w | moisture uptake (water sorption) ([1]; 25° C., up to 90% RH, listed as Form I): < 0.3 % w/w | D10 ([2]; 5 sec sonication): 3.24 μm | D50 ([2]; 5 sec sonication): 14.87 μm | D90 ([2]; 5 sec sonication): 40.92 μm | D[4.3] ([2]; 5 sec sonication): 19.09 μm | D10 ([2]; 15 sec sonication): 2.70 μm | D50 ([2]; 15 sec sonication): 10.93 μm | D90 ([2]; 15 sec sonication): 27.59 μm | D[4.3] ([2]; 15 sec sonication): 13.44 μm | D10 [2, 12]: 4.76 μm | D50 [2, 12]: 27.73 μm | D90 [2, 12]: 208.16 μm | D[4.3] [2, 12]: 74.60 μm | physical form stability ([3]; 25° C./60% RH): remains stable | physical form stability ([3]; 40° C./75% RH): remains stable | solubility [4]: 30.8 µg/mL (≈ 75.6 µM) | time by which form conversion is complete [5]: ≤ 96 h | time at which anhydrate to hydrate conversion was initiated ([5]; RT): 12 h | time to complete anhydrate to hydrate conversion ([5]; RT): ≤ 4 days | time within which anhydrate to hydrate conversion starts ([5]; hydrate marker peak by XRPD): ≤ 12 h | relative thermodynamic stability of the forms ([6]; Form A versus Form D, RT to 214° C.): thermodynamically stable form; also recorded: more stable form | physical form upon milling [7]: remains stable

C[C@H](Nc1ccc2c(c1)OCCn1cc(N3C(=O)OC[C@H]3C(F)F)nc1-2)C(N)=O [Form B, (S)-2-((2-((S)-4-(difluoromethyl)-2-oxooxazolidin-3-yl)-5,6-dihydrobenzo[f]imidazo[1,2-d][1,4]oxazepin-9-yl)amino) propanamide]
lattice water lost on isothermal dehydration [8]: 12% | RH below which dehydration commences (desorption curve) ([1]; 25° C.): below 40 % RH | RH range where intermediate dehydrated form is evident ([1]; 25° C., desorption): 20-50 % RH | RH beyond which the anhydrous product rehydrates ([1]; 25° C., resorption): > 40 % RH

C[C@H](Nc1ccc2c(c1)OCCn1cc(N3C(=O)OC[C@H]3C(F)F)nc1-2)C(N)=O [Form D, (S)-2-((2-((S)-4-(difluoromethyl)-2-oxooxazolidin-3-yl)-5,6-dihydrobenzo[f]imidazo[1,2-d][1,4]oxazepin-9-yl)amino) propanamide]
form conversion in slurry ([6]; Forms A and D 1:1, n-propanol, RT, overnight): converts to Form A

C[C@H](Nc1ccc2c(c1)OCCn1cc(N3C(=O)OC[C@H]3C(F)F)nc1-2)C(N)=O [GDC-0077, (S)-2-((2-((S)-4-(difluoromethyl)-2-oxooxazolidin-3-yl)-5,6-dihydrobenzo[f]imidazo[1,2-d][1,4]oxazepin-9-yl)amino) propanamide]
aw of anhydrate-hydrate equilibrium [9]: 0.82-0.86 | equilibrium RH (relative humidity) zone for the two forms [9]: 82-86% | water content equivalent to equilibrium RH zone [9]: 65-83 % w/w | PI3K activity [10]: potent

C[C@H](Nc1ccc2c(c1)OCCn1cc(N3C(=O)OC[C@H]3C(F)F)nc1-2)C(N)=O [Jet Milled]
increase in moisture uptake compared to the unmilled material ([1]; water sorption profile): 1 % w/w | D10 [2, 13]: 0.7 μm | D50 [2, 13]: 2.7 μm | D90 [2, 13]: 6.7 μm | BET Surface Area [11]: 6.68 ± 0.16 m2/g | BET Surface Area ([11]; listed as milled lot): 6.68 m2/g | surface area from sauter mean diameter (D3,2) ([11]; calculated from particle size): 3.42 m2/g | increase in surface area upon milling ([11]; milled versus unmilled): 10 ×

C[C@H](Nc1ccc2c(c1)OCCn1cc(N3C(=O)OC[C@H]3C(F)F)nc1-2)C(N)=O [Unmilled]
weight gain (water sorption) ([1]; up to 90% RH): 0.25% | BET Surface Area [11]: 0.78 ± 0.03 m2/g | BET Surface Area ([11]; listed as unmilled material): 0.78 m2/g
